# US7977352B2, “Triazolopyridine compounds useful for the treatment of degenerative and inflammatory diseases” (Galapagos NV, priority 2006, dated 2011)
# Columns and labels:
# [1] = target: T1, TAK1-TAB1 fusion protein (Homo sapiens, UniProt O43318); test: In vitro TAK1 kinase assay; format: biochemical; details: casein substrate, [33P]-γ-ATP, 90 minutes at 30° C., semi-quantitative score, read-out: POTENCY TAK1 (MAP3K7)
# T1 construct: purchased Upstate 14-600
# T1 sequence (O43318 with tags, fused parts or gaps limits assumed): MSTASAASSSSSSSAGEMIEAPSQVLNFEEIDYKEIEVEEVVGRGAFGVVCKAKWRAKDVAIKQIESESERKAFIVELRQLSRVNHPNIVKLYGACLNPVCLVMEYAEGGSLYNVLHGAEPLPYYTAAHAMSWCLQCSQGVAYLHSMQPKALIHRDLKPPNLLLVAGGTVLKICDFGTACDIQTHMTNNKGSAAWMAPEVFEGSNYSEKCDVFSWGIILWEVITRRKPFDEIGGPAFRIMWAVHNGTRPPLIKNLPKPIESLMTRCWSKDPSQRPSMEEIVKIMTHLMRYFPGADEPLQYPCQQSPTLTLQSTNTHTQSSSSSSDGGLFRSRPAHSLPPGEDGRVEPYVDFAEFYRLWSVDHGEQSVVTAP
# Protocol: For assessing TAK1 inhibition, active TAK1-TAB1 fusion protein was used from Upstate (Cat. No, 14-600). Kinase reactions are set up in 96-well polypropylene plates in 25 μL containing 0.5 mU TAK1-TAB1 fusion protein, 5mM ATP, 0.01 μCi/μL [^33P]-γ-ATP, 0.1 mg/mL casein substrate in 1× reaction buffer containing 10 mM MOPS pH 7.0, 1 mM EDTA.
# Starting from the compound master stocks (all at 10 mM concentration in 100% DMSO) a 3-fold serial dilution is made in 96-well plates in 100% DMSO. Plates are further diluted […] in H2O containing 3.5% DMSO, to obtain an intermediate work stock with compounds at 5× the final assay concentration in 5% DMSO.
# 5 μL of the intermediate stock is transferred into V-bottom 96 well polypropylene plates and 11 μL of Enzyme mix is added. Enzyme mix is made by combining 5 μL 5× reaction buffer ([…] pH 7.0, 1 mM EDTA), 5 μL casein (Sigma) diluted in H20 to 0.5 mg/mL and 1 μL of TAK1-TAB1 fusion protein that was prediluted to 0.5 mU/μL in 1× enzyme dilution buffer (20 mM MOPS pH 7.0, 0.1 mM EDTA, 0.01% Brij-35, 5% glycerol, 1 mM DTT, 1 mg/ml BSA).
# The reactions are started by the addition of 9 μL of mixture containing ATP (20.83 uM) and [^33P]-γ-ATP (0.028 μCi/μL).
# The assay is stopped 90 minutes after incubation at 30° C. by the addition of 25 μL phosphoric acid (150 mM). The label incorporated into the casein substrate is separated from labeled unincorporated ATP by filtration onto 96-well filter plates using a harvester device. After 6 washes with 75 mM phosphoric acid, the bottom of the filter plates are sealed, and incorporated label is quantified after addition of 40 μL scintillation fluid using TopCount.
# [2] = test system: MMP1 expression by activated synovial fibroblasts (RASFs); test: MMP assay: MMP1 expression by RASFs triggered with TNF-α (MMP1 ELISA); format: cell-based; details: Fibroblast, 48 h, TNF-α trigger 10 ng/mL, semi-quantitative score, read-out: REDUCTION MMP1/TNFa
# Protocol: A 384-well format ELISA for measurement of MMP1 is developed. Various primary antibodies are tested, as well as various ELISA protocols. The following protocol is developed and validated to measure MMP1 levels in SF supernatant in 384 well plates: white Lumitrac 600 384 well plates (Greiner) are coated with 2 μg/mL anti-MMP1 antibody MAB1346 (Chemicon). The antibody is diluted in buffer 40 (1.21 g Tris base (Sigma), 0.58 g NaCl (Calbiochem) and 5 mL 10% NaN3 (Sigma) in 1 L milliQ water and adjusted to pH 8.5). After overnight incubation at 4° C., plates are washed with PBS (80 g NaCl, 2 g KCl (Sigma), 11.5 g Na2HPO4.7H2O and 2 g KH2PO4 in 10 L milliQ; pH 7.4) and blocked with 100 μL/well Casein buffer (2% Casein (VWR International) in PBS). Next day, casein buffer is removed from ELISA plates and replaced by 50 μL/well EC buffer (4 g casein, 2.13 g Na2HPO4 (Sigma), 2 g bovine albumin (Sigma), 0.69 g NaH2PO4.H2O (Sigma), 0.5 g CHAPS (Roche), 23.3 g NaCl, 4 mL 0.5 M EDTA pH 8 (Invitrogen), 5 mL 10% NaN3 in 1 L milliQ and adjusted to pH 7.0). 0.25 mM DTT (Sigma) is added to the thawed sample plates. After removal of the EC buffer, 20 μL of sample is transferred to the ELISA plates. After overnight incubation at 4° C. plates are washed twice with PBS and once with PBST (PBS with 0.05% Tween-20 (Sigma)) and incubated with 35 μL/well biotinylated anti-MMP1 antibody solution (R&D). This secondary antibody is diluted in buffer C (0.82 g NaH2PO4.H2O, 4.82 g Na2HPO4, 46.6 g NaCl, 20 g bovine albumin and 4 mL 0.5M EDTA pH 8 in 2 L milliQ and adjusted to pH 7.0) at a concentration of 5 μg/mL. After 2 h of incubation at RT, plates are washed as described above and incubated with 50 μL/well streptavidin-HRP conjugate (Biosource). Streptavidin-HRP conjugate is diluted in buffer C at a concentration of 0.25 μg/mL. After 45 min, plates are washed as described above and incubated for 5 min with 50 μL/well BM Chem ELISA Substrate (Roche). Readout is performed on the Luminoscan Ascent Luminometer (Labsystems) with an integration time of 200 msec or with an Envision reader (Perkin Elmer).
# SFs were acquired at passage 1 from a commercial supplier (Cell applications, Inc.). SFs are cultured in DMEM supplemented with 10% heat-inactivated FBS, 1× penicillin/streptomycin (Invitrogen) at 37° C., 10% CO2 until passage 6. Aliquots of the cells are frozen and cryopreserved in liquid nitrogen. Starting from a cryopreserved aliquot, cells are further expanded by sub-culturing cells at 1/3 ratio every week. Cells between passage 10 and 12 are routinely used in compound testing according to following protocol.
# Starting from the compound master stocks (all at 10 mM concentration in 100% DMSO) a 3-fold serial dilution is made in 96-well plates in 100% DMSO. Then, plates are further diluted 45-fold in M199 medium supplemented with 1% heat-inactivated FBS to obtain a intermediate work stock.
# At day 1, RASFs are seeded in 96 well plates (flat bottom, tissue culture treated, Greiner) at a density of 3000 cells/well in complete synovial growth medium (Cell Applications). Day 5, the medium is completely removed from the cells, and replaced by 81 μL of M199 medium supplemented with 1% heat-inactivated FBS followed by addition of 10 μL compound out of the intermediate work stock. After an incubation period of 90 minutes, which allows the compounds to equilibrate and enter the cells, cells are stimulated with either TNF-α or ‘complex trigger’. TNF-α trigger is added in a volume of […] to obtain final concentration of 10 ng/mL. For that, TNF-α stock (PeproTech) at 10 μg/mL was diluted to 100 ng/mL TNF-a in M199 medium supplemented with 1% FBS. ‘Complex trigger’ mix is added in a volume of 20 μL to obtain a final concentration of 12.5%. For that, ‘complex trigger’ mix, is diluted to 80% with M199 medium supplemented with 1% FBS. […]
# [3] = test system: MMP1 expression by activated SFs; test: MMP assay proof of principle: MMP1 produced by complex trigger activated SFs; format: cell-based; details: Homo sapiens, supernatant of THP-1 cells treated with TNF-a (50% diluted), 48 hrs, FIG. 3, read-out: IC50 value, reduction of MMP1 expression by SFs
# Protocol: A 384-well format ELISA for measurement of MMP1 is developed. Various primary antibodies are tested, as well as various ELISA protocols. The following protocol is developed and validated to measure MMP1 levels in SF supernatant in 384 well plates: white Lumitrac 600 384 well plates (Greiner) are coated with 2 μg/mL anti-MMP1 antibody MAB1346 (Chemicon). The antibody is diluted in buffer 40 (1.21 g Tris base (Sigma), 0.58 g NaCl (Calbiochem) and 5 mL 10% NaN3 (Sigma) in 1 L milliQ water and adjusted to pH 8.5). After overnight incubation at 4° C., plates are washed with PBS (80 g NaCl, 2 g KCl (Sigma), 11.5 g Na2HPO4.7H2O and 2 g KH2PO4 in 10 L milliQ; pH 7.4) and blocked with 100 μL/well Casein buffer (2% Casein (VWR International) in PBS). Next day, casein buffer is removed from ELISA plates and replaced by 50 μL/well EC buffer (4 g casein, 2.13 g Na2HPO4 (Sigma), 2 g bovine albumin (Sigma), 0.69 g NaH2PO4.H2O (Sigma), 0.5 g CHAPS (Roche), 23.3 g NaCl, 4 mL 0.5 M EDTA pH 8 (Invitrogen), 5 mL 10% NaN3 in 1 L milliQ and adjusted to pH 7.0). 0.25 mM DTT (Sigma) is added to the thawed sample plates. After removal of the EC buffer, 20 μL of sample is transferred to the ELISA plates. […] Readout is performed on the Luminoscan Ascent Luminometer (Labsystems) with an integration time of 200 msec or with an Envision reader (Perkin Elmer). […]
Structure (SMILES),IC50 [1],IC50 [3],IC50 [2]
"CCCN1CCN(c2ccc(Nc3ccc(-c4ccc(C(N)=O)cc4)n4ncnc34)cc2)CC1 [Example 13, 4-(8-{[4-(4-propylpiperazin-1-yl)phenyl]amino}[1,2,4]triazolo[1,5-a]pyridin-5-yl)benzamide]",< 0.5 µM,–,> 10 µM
"O=c1cc(-c2ccc(Nc3ccc(N4CCN(C5CCC5)CC4)cc3)c3ncnn23)cc[nH]1 [Example 24, 4-(8-{[4-(4-cyclobutylpiperazin-1-yl)phenyl]amino}[1,2,4]triazolo[1,5-a]pyridin-5-yl)pyridin-2(1H)-one]",< 0.5 µM,–,1 to 5 µM
C[C@@H]1C[C@H]2[C@@H]3CCC4=CC(=O)C=C[C@]4(C)[C@@]3(F)[C@@H](O)C[C@]2(C)[C@@]1(O)C(=O)CO [dexamethasone],–,~0.001 µM,–
"C[C@@H]1CN(C)[C@@H](C)CN1c1ccc(Nc2ccc(-c3cc[nH]c(=O)c3)n3ncnc23)cc1F (relative stereo) [Example 11, rel-4-[8-({3-fluoro-4-[(2R,5S)-2,4,5-trimethylpiperazin-1-yl]phenyl}amino)[1,2,4]triazolo[1,5-a]pyridin-5-yl]pyridin-2(1H)-one]",< 0.5 µM,–,1 to 5 µM
"COc1cc(-c2ccc(Nc3ccc(N4CCN(C5CC5)CC4)cc3)c3ncnn23)ccn1 [Example 30, N-[4-(4-cyclopropylpiperazin-1-yl)phenyl]-5-(2-methoxypyridin-4-yl)[1,2,4]triazolo[1,5-a]pyridin-8-amine]",> 10 µM,–,1 to 5 µM

# Now from value to compound, other results behind:
IC50 [1],IC50 [3],Structure (SMILES),IC50 [2]
> 10 µM,–,"NC(=O)c1cccc(-c2ccc(Nc3ccc(N4CCOCC4)cc3)c3ncnn23)c1 [Example 43, 3-{8-[(4-morpholin-4-ylphenyl)amino][1,2,4]triazolo[1,5-a]pyridin-5-yl}benzamide]",> 10 µM
1 to 5 µM,–,"NC(=O)c1ccc(-c2ccc(Nc3ccc(N4CCN(C5CC5)CC4)cc3)c3ncnn23)cc1 [Example 18, 4-(8-{[4-(4-cyclopropylpiperazin-1-yl)phenyl]amino}[1,2,4]triazolo[1,5-a]pyridin-5-yl)benzamide]",1 to 5 µM
> 10 µM,–,"NC(=O)c1cc(-c2ccc(Nc3ccc(N4CCOCC4)cc3)c3ncnn23)ccc1F [Example 45, 2-fluoro-5-{8-[(4-morpholin-4-ylphenyl)amino][1,2,4]triazolo[1,5-a]pyridin-5-yl}benzamide]",> 10 µM
